Patent publication US8642788B2, “Activators of executioner procaspases 3, 6 and 7” (The Regents of the University of California, priority 2008, dated 2014)

Columns and labels:
Format in all cases: biochemical
procaspase-3 = biological target: T1, procaspase-3 (Homo sapiens, UniProt P42574); test: Executioner procaspase-3 activation assay (Ac-DEVD-AFC fluorogenic substrate); conditions: incubation with compound for 5 h at 37° C.; 100 nM procaspase; read-out: Procaspase Activation 3
T1 construct: His6 (C); made in house; host or cells: E. coli BL21(DE3)RP, pET-23b
T1 sequence (P42574 1-277): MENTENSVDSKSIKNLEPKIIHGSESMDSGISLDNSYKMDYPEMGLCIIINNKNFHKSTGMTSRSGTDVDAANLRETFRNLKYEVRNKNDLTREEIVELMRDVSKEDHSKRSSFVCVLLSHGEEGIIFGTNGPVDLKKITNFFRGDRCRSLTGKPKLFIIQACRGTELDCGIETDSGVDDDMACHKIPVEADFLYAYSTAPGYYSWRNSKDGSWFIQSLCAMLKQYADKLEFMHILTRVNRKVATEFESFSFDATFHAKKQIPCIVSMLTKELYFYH
Method in brief: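 Procaspase-3 at 100 nM was incubated with activating compounds (100 nM to 100 uM) in 50 mM HEPES pH 7.4, 50 mM KCl, 1 mM DTT and 0.01% Triton-X100, the detergent limiting aggregation artefacts. Protein, substrate and inhibitor were kept as frozen aliquots and thawed just before use.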

procaspase-6 = biological target: T2, procaspase-6 (Homo sapiens, UniProt P55212); test: Executioner procaspase-6 activation assay (Ac-VEID-AFC fluorogenic substrate); conditions: incubation with compound for 5 h at 37° C.; 100 nM procaspase
T2 sequence (P55212 1-293): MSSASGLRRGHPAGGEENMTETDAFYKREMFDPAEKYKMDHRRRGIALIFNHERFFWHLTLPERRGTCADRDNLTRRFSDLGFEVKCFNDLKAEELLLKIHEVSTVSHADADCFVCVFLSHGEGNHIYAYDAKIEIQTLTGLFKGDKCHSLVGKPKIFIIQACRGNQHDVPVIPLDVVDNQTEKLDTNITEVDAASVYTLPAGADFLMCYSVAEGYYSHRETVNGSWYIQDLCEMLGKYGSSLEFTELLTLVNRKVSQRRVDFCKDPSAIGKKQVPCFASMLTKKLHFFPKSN
Method in brief: (§1)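 Procaspase at 100 nM incubated with compound (100 nM–100 μM) in 50 mM HEPES pH 7.4, KCl, DTT, 0.01% Triton X-100, 3% DMSO, 37 °C for 5 h; then 25 μM Ac-DEVD-AFC (procaspase-7) or Ac-VEID-AFC (procaspase-6), kinetic fluorescence 30 min (ex 365/em 495); EC50 reported.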

procaspase-7 = biological target: T3, procaspase-7 (Homo sapiens, UniProt P55210); test: Executioner procaspase-7 activation assay (Ac-DEVD-AFC fluorogenic substrate); conditions: incubation with compound for 5 h at 37° C.; 100 nM procaspase
T3 construct: His6 (C); made in house; host or cells: E. coli BL21(DE3)RP, pET-21b
T3 sequence (P55210 1-303): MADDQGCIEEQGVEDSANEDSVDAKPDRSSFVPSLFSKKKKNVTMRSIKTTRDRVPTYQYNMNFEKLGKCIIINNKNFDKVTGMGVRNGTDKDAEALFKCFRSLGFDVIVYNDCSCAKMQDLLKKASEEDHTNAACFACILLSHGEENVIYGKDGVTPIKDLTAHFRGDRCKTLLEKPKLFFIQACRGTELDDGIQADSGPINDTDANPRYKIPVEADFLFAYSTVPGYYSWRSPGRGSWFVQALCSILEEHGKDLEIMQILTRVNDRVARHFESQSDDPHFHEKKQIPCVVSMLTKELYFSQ
Method in brief: as §1

| SMILES | EC50 (procaspase-3) [µM] | EC50 (procaspase-6) [µM] | EC50 (procaspase-7) [µM] |
| --- | --- | --- | --- |
| CN(C)c1ccc(-c2cccc(NC(=O)c3cc4cccc(O)c4oc3=O)c2)cn1 [compound 137, 8-Hydroxy-2-oxo-2H-chromene-3-carboxylic acid [3-(6-dimethylamino-pyridin-3-yl)-phenyl]-amide] | > 100 | > 100 | > 100 |
| COc1cccc2cc(C(=O)Nc3cccc(-c4ccc(N(C)C)nc4)c3)c(=O)oc12 [compound 138, 8-Methoxy-2-oxo-2H-chromene-3-carboxylic acid [3-(6-dimethylamino-pyridin-3-yl)-phenyl]-amide] | > 100 | > 100 | > 100 |
| O=C(Nc1cccc(-c2ccc(O)nc2)c1)c1cc2cccc(O)c2oc1=O [compound 139, 8-Hydroxy-2-oxo-2H-chromene-3-carboxylic acid [3-(6-hydroxy-pyridin-3-yl)-phenyl]-amide] | > 100 | > 100 | > 100 |
| COc1cccc2cc(C(=O)Nc3cccc(-c4ccc(O)nc4)c3)c(=O)oc12 [compound 140, 8-Methoxy-2-oxo-2H-chromene-3-carboxylic acid [3-(6-hydroxy-pyridin-3-yl)-phenyl]-amide] | > 100 | > 100 | > 100 |
| COc1ncccc1-c1cccc(NC(=O)c2cc3cccc(O)c3oc2=O)c1 [compound 141, 8-Hydroxy-2-oxo-2H-chromene-3-carboxylic acid [3-(2-methoxy-pyridin-3-yl)-phenyl]-amide] | > 100 | > 100 | 10 to 50 |
| COc1ncccc1-c1cccc(NC(=O)c2cc3cccc(OC)c3oc2=O)c1 [compound 142, 8-Methoxy-2-oxo-2H-chromene-3-carboxylic acid [3-(2-methoxy-pyridin-3-yl)-phenyl]-amide] | > 100 | > 100 | > 100 |
| N#Cc1ccc(-c2cccc(NC(=O)c3cc4cccc(O)c4oc3=O)c2)cc1F [compound 143, 8-Hydroxy-2-oxo-2H-chromene-3-carboxylic acid (4′-cyano-3′-fluoro-biphenyl-3-yl)-amide] | > 100 | > 100 | > 100 |
| COc1cccc2cc(C(=O)Nc3cccc(-c4ccc(C#N)c(F)c4)c3)c(=O)oc12 [compound 144, 8-Methoxy-2-oxo-2H-chromene-3-carboxylic acid (4′-cyano-3′-fluoro-biphenyl-3-yl)-amide] | > 100 | > 100 | > 100 |
| N#Cc1cc(-c2cccc(NC(=O)c3cc4cccc(O)c4oc3=O)c2)ccc1F [compound 145, 8-Hydroxy-2-oxo-2H-chromene-3-carboxylic acid (3′-cyano-4′-fluoro-biphenyl-3-yl)-amide] | > 100 | > 100 | > 100 |
| COc1cccc2cc(C(=O)Nc3cccc(-c4ccc(F)c(C#N)c4)c3)c(=O)oc12 [compound 146, 8-Methoxy-2-oxo-2H-chromene-3-carboxylic acid (3′-cyano-4′-fluoro-biphenyl-3-yl)-amide] | > 100 | > 100 | > 100 |
| N#Cc1cccc(-c2cccc(NC(=O)c3cc4cccc(O)c4oc3=O)c2)c1 [compound 147, 8-Hydroxy-2-oxo-2H-chromene-3-carboxylic acid (3′-cyano-biphenyl-3-yl)-amide] | > 100 | > 100 | > 100 |
| COc1cccc2cc(C(=O)Nc3cccc(-c4cccc(C#N)c4)c3)c(=O)oc12 [compound 148, 8-Methoxy-2-oxo-2′-chromene-3-carboxylic acid (3′-cyano-biphenyl-3-yl)-amide] | > 100 | > 100 | > 100 |
| O=C(Nc1cccc(-c2cn[nH]c2)c1)c1cc2cccc(O)c2oc1=O [compound 149, 8-Hydroxy-2-oxo-2H-chromene-3-carboxylic acid [3-(1H-pyrazol-4-yl)-phenyl]-amide] | > 100 | > 100 | > 100 |
| COc1cccc2cc(C(=O)Nc3cccc(-c4cn[nH]c4)c3)c(=O)oc12 [compound 150, 8-Methoxy-2-oxo-2H-chromene-3-carboxylic acid [3-(1H-pyrazol-4-yl)-phenyl]-amide] | > 100 | > 100 | > 100 |
| Cn1nccc1-c1cccc(NC(=O)c2cc3cccc(O)c3oc2=O)c1 [compound 151, 8-Hydroxy-2-oxo-2H-chromene-3-carboxylic acid [3-(2-methyl-2H-pyrazol-3-yl)-phenyl]-amide] | 10 to 50 | > 100 | 10 to 50 |
| COc1cccc2cc(C(=O)Nc3cccc(-c4ccnn4C)c3)c(=O)oc12 [compound 152, 8-Methoxy-2-oxo-2H-chromene-3-carboxylic acid [3-(2-methyl-2H-pyrazol-3-yl)-phenyl]-amide] | > 100 | > 100 | > 100 |
| Cc1noc(C)c1-c1cccc(NC(=O)c2cc3cccc(O)c3oc2=O)c1 [compound 153, 8-Hydroxy-2-oxo-2H-chromene-3-carboxylic acid [3-(3,5-dimethyl-isoxazol-4-yl)-phenyl]-amide] | 10 to 50 | > 100 | 10 to 50 |
| COc1cccc2cc(C(=O)Nc3cccc(-c4c(C)noc4C)c3)c(=O)oc12 [compound 154, 8-Methoxy-2-oxo-2H-chromene-3-carboxylic acid [3-(3,5-dimethyl-isoxazol-4-yl)-phenyl]-amide] | > 100 | > 100 | > 100 |
| O=C(Nc1cccc(-c2ccn[nH]2)c1)c1cc2cccc(O)c2oc1=O [compound 155, 8-Hydroxy-2-oxo-2H-chromene-3-carboxylic acid [3-(2H-pyrazol-3-yl)-phenyl]-amide] | > 100 | > 100 | > 100 |
| COc1cccc2cc(C(=O)Nc3cccc(-c4ccn[nH]4)c3)c(=O)oc12 [compound 156, 8-Methoxy-2-oxo-2H-chromene-3-carboxylic acid [3-(2H-pyrazol-3-yl)-phenyl]-amide] | > 100 | > 100 | > 100 |
| O=C(Nc1cccc(-c2ccc3[nH]c(=O)[nH]c3c2)c1)c1cc2cccc(O)c2oc1=O [compound 157, 8-Hydroxy-2-oxo-2H-chromene-3-carboxylic acid [3-(2-oxo-2,3-dihydro-1H-benzoimidazol-5-yl)-phenyl]-amide] | > 100 | > 100 | > 100 |
| COc1cccc2cc(C(=O)Nc3cccc(-c4ccc5[nH]c(=O)[nH]c5c4)c3)c(=O)oc12 [compound 158, 8-Methoxy-2-oxo-2H-chromene-3-carboxylic acid [3-(2-oxo-2,3-dihydro-1H-benzoimidazol-5-yl)-phenyl]-amide] | > 100 | > 100 | > 100 |
| O=C(Nc1cccc(-c2ccc3nonc3c2)c1)c1cc2cccc(O)c2oc1=O [compound 159, 8-Hydroxy-2-oxo-2H-chromene-3-carboxylic acid (3-benzo[1,2,5]oxadiazol-5-yl-phenyl)-amide] | > 100 | > 100 | > 100 |
| COc1cccc2cc(C(=O)Nc3cccc(-c4ccc5nonc5c4)c3)c(=O)oc12 [compound 160, 8-Methoxy-2-oxo-2H-chromene-3-carboxylic acid (3-benzo[1,2,5]oxadiazol-5-yl-phenyl)-amide] | > 100 | > 100 | > 100 |
| O=C(Nc1cccc(-c2ccc3occc(=O)c3c2)c1)c1cc2cccc(O)c2oc1=O [compound 161, 8-Hydroxy-2-oxo-2H-chromene-3-carboxylic acid [3-(4-oxo-4H-chromen-6-yl)-phenyl]-amide] | 0.5 to 10 | > 100 | > 100 |
| COc1cccc2cc(C(=O)Nc3cccc(-c4ccc5occc(=O)c5c4)c3)c(=O)oc12 [compound 162, 8-Methoxy-2-oxo-2H-chromene-3-carboxylic acid [3-(4-oxo-4H-chromen-6-yl)-phenyl]-amide] | > 100 | 0.5 to 10 | > 100 |
